Measured values from PubChem BioAssay AID256 (DTP/NCI, 2004).
Where “and” joins values, the source holds several entries; their conditions need not be identical. Equal values may be shown once. Inconclusive results and toxic doses are left out.

Tested on: CD2F1 mice, L1210 leukemia ip, survival T/C
Experiment: NCI In Vivo Anticancer Drug Screen. Data for tumor model L1210 Leukemia (intraperitoneal) in CD2F1 (CDF1) mice
Conditions: higher = longer survival
How it was run: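 Mice carrying a transplanted tumor received test compound or vehicle alone. The value is the measurement in the treated group divided by that in the vehicle-treated control group.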

[1] = endpoint: mean survival time, dose: 100.0 mg/kg/injection, schedule: Q01DX001 (ip), vehicle: saline
[2] = endpoint: mean survival time, dose: 200.0 mg/kg/injection, schedule: Q01DX001 (ip), vehicle: saline
[3] = endpoint: mean survival time, dose: 400.0 mg/kg/injection, schedule: Q01DX001 (ip), vehicle: saline
[4] = endpoint: mean survival time, dose: 100.0 mg/kg/injection, schedule: Q04DX003 (ip), vehicle: saline with Tween-80
[5] = endpoint: mean survival time, dose: 200.0 mg/kg/injection, schedule: Q04DX003 (ip), vehicle: saline with Tween-80
[6] = endpoint: mean survival time, dose: 400.0 mg/kg/injection, schedule: Q04DX003 (ip), vehicle: saline with Tween-80
[7] = endpoint: mean survival time, dose: 50.0 mg/kg/injection, schedule: Q01DX009 (ip), vehicle: saline with Tween-80
[8] = endpoint: mean survival time, dose: 100.0 mg/kg/injection, schedule: Q01DX009 (ip), vehicle: saline with Tween-80
[9] = endpoint: mean survival time, dose: 200.0 mg/kg/injection, schedule: Q01DX009 (ip), vehicle: saline with Tween-80
[10] = endpoint: mean survival time, dose: 100.0 mg/kg/injection, schedule: Q01DX001 (ip), vehicle: Klucel (hydroxypropylcellulose) (HPC)
[11] = endpoint: mean survival time, dose: 200.0 mg/kg/injection, schedule: Q01DX001 (ip), vehicle: Klucel (hydroxypropylcellulose) (HPC)

In the case of `Cc1cc(C)c2[nH]c(=O)c(C)c(C)c2c1`, the T/C [1] is reported as 96 % of control, the T/C [2] is reported as 96 % of control and the T/C [3] is reported as 93 % of control.
In the case of `C=Cc1ccc(Oc2ccccc2)cc1`, the T/C [4] is reported as 93 % of control, the T/C [5] is reported as 97 % of control and the T/C [6] is reported as 90 % of control.
`O=C(COc1ccc(Cl)c(Cl)c1)Nc1cccc(C(=O)CCl)c1` was tested, and the T/C [4] was 95 % of control, the T/C [5] was 101 % of control and the T/C [6] was 103 % of control.
`CN(C)c1ccc(N=Nc2cccc(C(=O)[O-])c2)cc1.CN(C)c1ccc(N=Nc2cccc(C(=O)[O-])c2)cc1.NC1CCCCC1N.[Pt+4]` was tested, and the T/C (endpoint: median survival time, dose: 3.12 mg/kg/injection, schedule: Q04DX003 (ip), vehicle: saline with Tween-80) was 116 % of control and 98 % of control, the T/C (endpoint: median survival time, dose: 6.25 mg/kg/injection, schedule: Q04DX003 (ip), vehicle: saline with Tween-80) was 115 % of control and 109 % of control and the T/C (endpoint: median survival time, dose: 12.5 mg/kg/injection, schedule: Q04DX003 (ip), vehicle: saline with Tween-80) was 101 % of control. For the same compound, the T/C (endpoint: median survival time, dose: 100.0 mg/kg/injection, schedule: Q04DX003 (ip), vehicle: saline with Tween-80) was 375 % of control and the T/C (endpoint: median survival time, dose: 200.0 mg/kg/injection, schedule: Q04DX003 (ip), vehicle: saline with Tween-80) was 104 % of control.
For `O=C1OC(c2ccccc2)(c2ccccc2)C(=O)N1c1ccc(Br)cc1`, the T/C (endpoint: median survival time, dose: 3.13 mg/kg/injection, schedule: Q04DX002 (ip), vehicle: saline with Tween-80) was 100 % of control, the T/C (endpoint: median survival time, dose: 6.25 mg/kg/injection, schedule: Q04DX002 (ip), vehicle: saline with Tween-80) was 100 % of control and the T/C (endpoint: median survival time, dose: 12.5 mg/kg/injection, schedule: Q04DX002 (ip), vehicle: saline with Tween-80) was 111 % of control. The T/C (endpoint: median survival time, dose: 25.0 mg/kg/injection, schedule: Q04DX002 (ip), vehicle: saline with Tween-80) was 111 % of control and the T/C (endpoint: median survival time, dose: 25.0 mg/kg/injection, schedule: Q04DX003 (ip), vehicle: saline with Tween-80) was 94 % of control.
In the case of `Nc1ccc2c(Cl)cc(Cl)cc2c1`, the T/C [7] is reported as 102 % of control, the T/C [8] is reported as 103 % of control and the T/C [4] is reported as 98 % of control. The T/C [9] was 96 % of control and the T/C [5] was 91 % of control.
`COc1ccc(CCNC(=O)/C=C\C(=O)O)cc1OC` was tested, and the T/C [8] was 106 % of control, the T/C [4] was 89 % of control and the T/C [9] was 103 % of control. For the same compound, the T/C [5] was 103 % of control, the T/C (endpoint: mean survival time, dose: 400.0 mg/kg/injection, schedule: Q01DX009 (ip), vehicle: saline with Tween-80) was 101 % of control and the T/C [6] was 106 % of control.
With `O=NN(CCCl)C(=O)Nc1ccccn1` the T/C (endpoint: mean survival time, dose: 12.5 mg/kg/injection, schedule: Q01DX001 (ip), vehicle: other) was 101 % of control, the T/C (endpoint: mean survival time, dose: 25.0 mg/kg/injection, schedule: Q01DX001 (ip), vehicle: other) was 94 % of control and the T/C (endpoint: mean survival time, dose: 50.0 mg/kg/injection, schedule: Q01DX001 (ip), vehicle: other) was 101 % of control. For the same compound, the T/C (endpoint: mean survival time, dose: 100.0 mg/kg/injection, schedule: Q01DX001 (ip), vehicle: other) was 96 % of control.
With `CCN(CC)c1ccc(NC(=O)c2ccc(C(=O)Nc3ccc(N(CC)CC)cc3)cc2)cc1` the T/C [1] was 89 % of control, the T/C [2] was 92 % of control and the T/C [3] was 92 % of control.
`Cc1ccc(S(=O)(=O)N/N=C(\C(=O)O)c2ccccc2)cc1` was tested, and the T/C (endpoint: mean survival time, dose: 12.5 mg/kg/injection, schedule: Q01DX009 (ip), vehicle: Klucel (hydroxypropylcellulose) (HPC)) was 95 % of control, the T/C (endpoint: mean survival time, dose: 25.0 mg/kg/injection, schedule: Q01DX009 (ip), vehicle: Klucel (hydroxypropylcellulose) (HPC)) was 96 % of control and the T/C (endpoint: mean survival time, dose: 50.0 mg/kg/injection, schedule: Q01DX009 (ip), vehicle: Klucel (hydroxypropylcellulose) (HPC)) was 96 % of control. For the same compound, the T/C (endpoint: mean survival time, dose: 100.0 mg/kg/injection, schedule: Q01DX009 (ip), vehicle: Klucel (hydroxypropylcellulose) (HPC)) was 95 % of control and the T/C (endpoint: mean survival time, dose: 200.0 mg/kg/injection, schedule: Q01DX009 (ip), vehicle: Klucel (hydroxypropylcellulose) (HPC)) was 93 % of control.
With `N#CN=C([S-])[S-].N#CN=C([S-])[S-].[Cu]` the T/C (endpoint: mean survival time, dose: 12.5 mg/kg/injection, schedule: Q04DX003 (ip), vehicle: acetone) was 93 % of control and the T/C (endpoint: mean survival time, dose: 25.0 mg/kg/injection, schedule: Q04DX003 (ip), vehicle: acetone) was 94 % of control.
For `CC(Br)C(=O)NC(C)C(=O)O` (stereo unspecified), the T/C [4] was 92 % of control, the T/C [5] was 108 % of control and the T/C [6] was 121 % of control.
`Cc1ccc(S(=O)(=O)OCCOCCOCCOS(=O)(=O)c2ccc(C)cc2)cc1` was tested, and the T/C [4] was 101 % of control, the T/C [5] was 101 % of control and the T/C [6] was 101 % of control.
For `O=Cc1ccc2ccccc2[n+]1[O-]`, the T/C (endpoint: mean survival time, dose: 100.0 mg/kg/injection, schedule: Q04DX003 (ip), vehicle: saline) was 101 % of control, the T/C (endpoint: mean survival time, dose: 200.0 mg/kg/injection, schedule: Q04DX003 (ip), vehicle: saline) was 100 % of control and the T/C (endpoint: mean survival time, dose: 400.0 mg/kg/injection, schedule: Q04DX003 (ip), vehicle: saline) was 101 % of control.
In the case of `O=S1(=O)CC2(OCCO2)C1Cl` (stereo unspecified), the T/C (endpoint: mean survival time, dose: 100.0 mg/kg/injection, schedule: Q04DX002 (ip), vehicle: saline with Tween-80) is reported as 95 % of control and the T/C (endpoint: mean survival time, dose: 200.0 mg/kg/injection, schedule: Q04DX002 (ip), vehicle: saline with Tween-80) is reported as 91 % of control.
For `O=P1(N(CCCl)CCCl)OCCC(OO)N1CCCl` (stereo unspecified), the T/C (endpoint: mean survival time, dose: 100.0 mg/kg/injection, schedule: Q01DX001 (ip), vehicle: DMSO) was 268 % of control, the T/C [10] was 281 % of control and the T/C [11] was 309 % of control. The T/C (endpoint: mean survival time, dose: 400.0 mg/kg/injection, schedule: Q01DX001 (ip), vehicle: DMSO) was 163 % of control.
`COC1OC(CO)C(O)C(NC(=O)N(C)N=O)C1O` (stereo unspecified) was tested, and the T/C (endpoint: mean survival time, dose: 12.5 mg/kg/injection, schedule: Q01DX009 (ip), vehicle: saline) was 111 % of control, the T/C (endpoint: mean survival time, dose: 25.0 mg/kg/injection, schedule: Q01DX009 (ip), vehicle: saline) was 114 % of control and the T/C (endpoint: mean survival time, dose: 100.0 mg/kg/injection, schedule: Q01DX009 (ip), vehicle: saline) was 151 % of control. The T/C (endpoint: mean survival time, dose: 200.0 mg/kg/injection, schedule: Q01DX009 (ip), vehicle: saline) was 157 % of control and 197 % of control, the T/C (endpoint: mean survival time, dose: 400.0 mg/kg/injection, schedule: Q01DX009 (ip), vehicle: saline) was 95 % of control and the T/C (endpoint: median survival time, dose: 25.0 mg/kg/injection, schedule: Q01DX009 (ip), vehicle: saline) was 121 % of control. For the same compound, the T/C (endpoint: median survival time, dose: 100.0 mg/kg/injection, schedule: Q01DX009 (ip), vehicle: saline) was 159 % of control and 160 % of control, the T/C (endpoint: median survival time, dose: 144.0 mg/kg/injection, schedule: Q01DX005 (ip), vehicle: saline) was 158 % of control and the T/C (endpoint: median survival time, dose: 200.0 mg/kg/injection, schedule: Q01DX009 (ip), vehicle: saline) was 172 % of control and 209 % of control. For the same compound, the T/C (endpoint: median survival time, dose: 240.0 mg/kg/injection, schedule: Q01DX005 (ip), vehicle: saline) was 170 % of control and 172 % of control, the T/C (endpoint: median survival time, dose: 400.0 mg/kg/injection, schedule: Q01DX005 (ip), vehicle: saline) was 175 % of control and 225 % of control and the T/C (endpoint: median survival time, dose: 400.0 mg/kg/injection, schedule: Q01DX009 (ip), vehicle: saline) was 222 % of control and 236 % of control. For the same compound, the T/C (endpoint: median survival time, dose: 666.66 mg/kg/injection, schedule: Q01DX005 (ip), vehicle: saline) was 233 % of control and the T/C (endpoint: median survival time, dose: 1111.11 mg/kg/injection, schedule: Q01DX005 (ip), vehicle: saline) was 92 % of control.
For `O=C(C=P(c1ccccc1)(c1ccccc1)c1ccccc1)c1ccc([N+](=O)[O-])cc1`, the T/C (endpoint: mean survival time, dose: 50.0 mg/kg/injection, schedule: Q01DX001 (ip), vehicle: Klucel (hydroxypropylcellulose) (HPC)) was 90 % of control, the T/C [10] was 94 % of control and the T/C [11] was 102 % of control. For the same compound, the T/C (endpoint: mean survival time, dose: 400.0 mg/kg/injection, schedule: Q01DX001 (ip), vehicle: Klucel (hydroxypropylcellulose) (HPC)) was 93 % of control.
In the case of `CC(CN(C)C)c1ccccn1` (stereo unspecified), the T/C (endpoint: mean survival time, dose: 75.0 mg/kg/injection, schedule: Q01DX001 (ip), vehicle: other) is reported as 106 % of control, the T/C (endpoint: mean survival time, dose: 150.0 mg/kg/injection, schedule: Q01DX001 (ip), vehicle: other) is reported as 106 % of control and the T/C (endpoint: mean survival time, dose: 300.0 mg/kg/injection, schedule: Q01DX001 (ip), vehicle: other) is reported as 106 % of control.
`CSc1ncnc2nn(C3OC(CO)C(O)C3O)cc12` (stereo unspecified) was tested, and the T/C (endpoint: mean survival time, dose: 12.5 mg/kg/injection, schedule: Q01DX005 (ip), vehicle: water) was 103 % of control, the T/C (endpoint: mean survival time, dose: 25.0 mg/kg/injection, schedule: Q01DX005 (ip), vehicle: water) was 96 % of control and the T/C (endpoint: mean survival time, dose: 50.0 mg/kg/injection, schedule: Q01DX005 (ip), vehicle: water) was 103 % of control. The T/C (endpoint: mean survival time, dose: 100.0 mg/kg/injection, schedule: Q01DX005 (ip), vehicle: water) was 107 % of control and the T/C (endpoint: mean survival time, dose: 200.0 mg/kg/injection, schedule: Q01DX005 (ip), vehicle: water) was 100 % of control.
`O=C(O)C1CCC[N-]C1.O=C(O)C1CCC[N-]C1.[Cl][Pt+2][Cl]` (stereo unspecified) was tested, and the T/C (endpoint: mean survival time, dose: 5.0 mg/kg/injection, schedule: Q04DX003 (ip), vehicle: saline with Tween-80) was 95 % of control, the T/C (endpoint: mean survival time, dose: 10.0 mg/kg/injection, schedule: Q04DX003 (ip), vehicle: saline with Tween-80) was 112 % of control and the T/C (endpoint: mean survival time, dose: 20.0 mg/kg/injection, schedule: Q04DX003 (ip), vehicle: saline with Tween-80) was 107 % of control.
With `CNC(=O)Nc1nccs1` the T/C [7] was 105 % of control, the T/C [8] was 106 % of control and the T/C [9] was 97 % of control.
